Columns and labels:
Experiment in all cases: cells
Settings in all cases: Homo sapiens
HD-MY-Z = type: functional, cell-based;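 note: growth inhibition of HD-MY-Z cells, read out with a cell viability assay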
Description: SANGER: Inhibition of human HD-MY-Z cell growth in a cell viability assay.

MHH-PREB-1 = type: functional, cell-based;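 note: cell viability assay measuring inhibition of proliferation of human MHH-PREB-1 cells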
Description: SANGER: Inhibition of human MHH-PREB-1 cell growth in a cell viability assay.

IST-SL1 = type: functional, cell-based;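 note: growth inhibition of human IST-SL1 cells, read out with a cell viability assay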
Description: SANGER: Inhibition of human IST-SL1 cell growth in a cell viability assay.

C8166 = type: functional, cell-based;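 note: growth inhibition of human C8166 cells measured by a cell viability assay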
Description: SANGER: Inhibition of human C8166 cell growth in a cell viability assay.

697 = type: functional, cell-based
Description: SANGER: Inhibition of human 697 cell growth in a cell viability assay.

OVCAR-8 = type: functional, cell-based;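 note: growth inhibition of human OVCAR-8 cells, read out by a cell viability assay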
Description: SANGER: Inhibition of human OVCAR-8 cell growth in a cell viability assay.

OCI-AML2 = type: functional, cell-based;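 note: growth inhibition of OCI-AML2 cells, read out with a cell viability assay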
Description: SANGER: Inhibition of human OCI-AML2 cell growth in a cell viability assay.

NCI-H1563 = type: functional, cell-based;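 note: growth inhibition of human NCI-H1563 cells, read out with a cell viability assay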
Description: SANGER: Inhibition of human NCI-H1563 cell growth in a cell viability assay.

KYSE-450 = type: functional, cell-based;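 note: cell growth inhibition measured by a viability assay in human KYSE-450 cells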
Description: SANGER: Inhibition of human KYSE-450 cell growth in a cell viability assay.

KM12 = type: functional, cell-based;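 note: KM12 cell growth inhibition, read out with a cell viability assay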
Description: SANGER: Inhibition of human KM12 cell growth in a cell viability assay.

LB831-BLC = type: functional, cell-based;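 note: growth inhibition of LB831-BLC cells, read out with a cell viability assay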
Description: SANGER: Inhibition of human LB831-BLC cell growth in a cell viability assay.

MS-1 = type: functional, cell-based
Description: SANGER: Inhibition of human MS-1 cell growth in a cell viability assay.

LS-1034 = type: functional, cell-based
Description: SANGER: Inhibition of human LS-1034 cell growth in a cell viability assay.

UACC-893 = type: functional, cell-based
Description: SANGER: Inhibition of human UACC-893 cell growth in a cell viability assay.

SNU1 = type: functional, cell-based;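 note: growth inhibition of human NCI-SNU-1 cells, measured with a cell viability assay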
Description: SANGER: Inhibition of human NCI-SNU-1 cell growth in a cell viability assay.

ML-2 = type: functional, cell-based;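 note: growth inhibition of ML-2 cells, measured with a cell viability readout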
Description: SANGER: Inhibition of human ML-2 cell growth in a cell viability assay.

NCI-H1838 = type: functional, cell-based;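 note: growth inhibition of NCI-H1838 cells, determined with a cell viability readout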
Description: SANGER: Inhibition of human NCI-H1838 cell growth in a cell viability assay.

SNB-75 = type: functional, cell-based;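 note: cell viability assay measuring growth inhibition of human SNB-75 cells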
Description: SANGER: Inhibition of human SNB75 cell growth in a cell viability assay.

SW 962 = type: functional, cell-based;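 note: growth inhibition of human SW962 cells, read out by a cell viability assay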
Description: SANGER: Inhibition of human SW962 cell growth in a cell viability assay.

EOL1 = type: functional, cell-based;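 note: growth inhibition of EoL-1 cells, read out by a cell viability assay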
Description: SANGER: Inhibition of human EoL-1-cell cell growth in a cell viability assay.

A498 = type: functional, cell-based;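 note: growth inhibition of human A498 cells, read out with a cell viability assay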
Description: SANGER: Inhibition of human A498 cell growth in a cell viability assay.

KM-H2 = type: functional, cell-based;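 note: growth inhibition of KM-H2 cells, read out by a cell viability assay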
Description: SANGER: Inhibition of human KM-H2 cell growth in a cell viability assay.

GAK = type: functional, cell-based;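 note: cell growth inhibition read out by a cell viability assay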
Description: SANGER: Inhibition of human GAK cell growth in a cell viability assay.

MKN-45 = type: functional, cell-based;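 note: growth inhibition of human MKN-45 cells, measured with a cell viability assay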
Description: SANGER: Inhibition of human MKN45 cell growth in a cell viability assay.

Calu-6 = type: functional, cell-based;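 note: growth of human Calu-6 cells, read out by a cell viability assay, IC50 marking inhibition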
Description: SANGER: Inhibition of human Calu-6 cell growth in a cell viability assay.

SK-LMS-1 = type: functional, cell-based;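 note: growth inhibition of human SK-LMS-1 cells, read out with a cell viability assay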
Description: SANGER: Inhibition of human SK-LMS-1 cell growth in a cell viability assay.

UMC-11 = type: functional, cell-based;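 note: growth inhibition of UMC-11 cells, read out with a cell viability assay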
Description: SANGER: Inhibition of human UMC-11 cell growth in a cell viability assay.

RPMI-8226 = type: functional, cell-based
Description: SANGER: Inhibition of human RPMI-8226 cell growth in a cell viability assay.

DB = type: functional, cell-based
Description: SANGER: Inhibition of human DB cell growth in a cell viability assay.

TE-12 = type: functional, cell-based;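 note: growth inhibition of TE-12 cells, read out by a cell viability assay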
Description: SANGER: Inhibition of human TE-12 cell growth in a cell viability assay.

RCC10RGB = type: functional, cell-based;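 note: growth inhibition of human RCC10RGB cells, read out by a cell viability assay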
Description: SANGER: Inhibition of human RCC10RGB cell growth in a cell viability assay.

AM-38 = type: functional, cell-based;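 note: growth inhibition of AM-38 cells of human origin, read out by a cell viability assay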
Description: SANGER: Inhibition of human AM-38 cell growth in a cell viability assay.

JEG-3 = type: functional, cell-based;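 note: growth inhibition of human JEG-3 cells, read out with a cell viability assay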
Description: SANGER: Inhibition of human JEG-3 cell growth in a cell viability assay.

HH = type: functional, cell-based
Description: SANGER: Inhibition of human HH cell growth in a cell viability assay.

no-11 = type: functional, cell-based;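 note: growth inhibition of human NO-11 cells, read out with a cell viability assay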
Description: SANGER: Inhibition of human no-11 cell growth in a cell viability assay.

MDA-MB-157 = type: functional, cell-based
Description: SANGER: Inhibition of human MDA-MB-157 cell growth in a cell viability assay.

MN-60 = type: functional, cell-based;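 note: growth inhibition of the MN-60 cell line, determined with a cell viability assay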
Description: SANGER: Inhibition of human MN-60 cell growth in a cell viability assay.

LAN-6 = type: functional, cell-based;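 note: growth inhibition of LAN-6 cells, determined with a cell viability assay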
Description: SANGER: Inhibition of human LAN-6 cell growth in a cell viability assay.

NCI-H1299 = type: functional, cell-based;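 note: growth inhibition of human NCI-H1299 cells, read out by a cell viability assay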
Description: SANGER: Inhibition of human NCI-H1299 cell growth in a cell viability assay.

GB-1 = type: functional, cell-based;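 note: growth of GB-1 cells judged by a viability assay, IC50 marks the concentration inhibiting growth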
Description: SANGER: Inhibition of human GB-1 cell growth in a cell viability assay.

NCI-H2052 = type: functional, cell-based;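 note: growth inhibition of NCI-H2052 cells, read out with a cell viability assay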
Description: SANGER: Inhibition of human NCI-H2052 cell growth in a cell viability assay.

SF-268 = type: functional, cell-based;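 note: growth inhibition of SF-268 cells determined with a cell viability assay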
Description: SANGER: Inhibition of human SF268 cell growth in a cell viability assay.

LB2518-MEL = type: functional, cell-based;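 note: growth inhibition of human LB2518-MEL cells, measured with a cell viability assay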
Description: SANGER: Inhibition of human LB2518-MEL cell growth in a cell viability assay.

CP66-MEL = type: functional, cell-based;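 note: growth inhibition of CP66-MEL cells determined in a cell viability assay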
Description: SANGER: Inhibition of human CP66-MEL cell growth in a cell viability assay.

RS4-11 = type: functional, cell-based;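 note: growth inhibition of RS4-11 cells, read out by a cell viability assay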
Description: SANGER: Inhibition of human RS4-11 cell growth in a cell viability assay.

RPMI-8866 = type: functional, cell-based
Description: SANGER: Inhibition of human RPMI-8866 cell growth in a cell viability assay.

MV4-11 = type: functional, cell-based, MV-4-11;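 note: cell viability readout measuring growth inhibition of human MV-4-11 cells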
Description: SANGER: Inhibition of human MV-4-11 cell growth in a cell viability assay.

ES1 = type: functional, cell-based;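 note: growth inhibition of ES1 cells, read out with a cell viability assay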
Description: SANGER: Inhibition of human ES1 cell growth in a cell viability assay.

SW982 = type: functional, cell-based;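 note: growth inhibition of SW982 cells, read out with a cell viability assay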
Description: SANGER: Inhibition of human SW982 cell growth in a cell viability assay.

MDA-MB-453 = type: functional, cell-based
Description: SANGER: Inhibition of human MDA-MB-453 cell growth in a cell viability assay.

COLO-684 = type: functional, cell-based
Description: SANGER: Inhibition of human COLO-684 cell growth in a cell viability assay.

KINGS-1 = type: functional, cell-based;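 note: cell viability assay measuring suppression of KINGS-1 cell growth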
Description: SANGER: Inhibition of human KINGS-1 cell growth in a cell viability assay.

OCUB-M = type: functional, cell-based;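 note: growth inhibition of the cancer cell line, read out through a cell viability assay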
Description: SANGER: Inhibition of human OCUB-M cell growth in a cell viability assay.

JAR = type: functional, cell-based;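 note: growth inhibition of human JAR cells determined with a cell viability assay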
Description: SANGER: Inhibition of human JAR cell growth in a cell viability assay.

NCI-H1770 = type: functional, cell-based;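 note: growth inhibition of NCI-H1770 cells determined with a viability readout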
Description: SANGER: Inhibition of human NCI-H1770 cell growth in a cell viability assay.

A704 = type: functional, cell-based;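 note: growth inhibition of human A704 cells, read out with a cell viability assay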
Description: SANGER: Inhibition of human A704 cell growth in a cell viability assay.

NCI-H1155 = type: functional, cell-based;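 note: cell growth inhibition measured by a viability assay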
Description: SANGER: Inhibition of human NCI-H1155 cell growth in a cell viability assay.

SF-126 = type: functional, cell-based;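 note: growth inhibition of human SF126 cells, read out with a cell viability assay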
Description: SANGER: Inhibition of human SF126 cell growth in a cell viability assay.

QIMR-WIL = type: functional, cell-based;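 note: growth inhibition of QIMR-WIL cells, read out with a cell viability assay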
Description: SANGER: Inhibition of human QIMR-WIL cell growth in a cell viability assay.

HuTu80 = type: functional, cell-based, HUTU-80;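 note: growth inhibition of HuTu80 human cells, determined with a cell viability readout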
Description: SANGER: Inhibition of human HUTU-80 cell growth in a cell viability assay.

ES6 = type: functional, cell-based
Description: SANGER: Inhibition of human ES6 cell growth in a cell viability assay.

HC-1 = type: functional, cell-based
Description: SANGER: Inhibition of human HC-1 cell growth in a cell viability assay.

NCI-H1355 = type: functional, cell-based
Description: SANGER: Inhibition of human NCI-H1355 cell growth in a cell viability assay.

NB13 = type: functional, cell-based
Description: SANGER: Inhibition of human NB13 cell growth in a cell viability assay.

Measured: IC50

C[C@]1(c2nc3c(C(N)=O)cccc3[nH]2)CCCN1 [VELIPARIB]
1080 nM: EOL1
> 5000 nM: HD-MY-Z | 697 | SNU1 | A498 | HH | RPMI-8866 | MV4-11 | ES1 | JAR | NCI-H1770 | QIMR-WIL
> 5 µM: all other assays above

O=c1cc(N2CCOCC2)oc2c(-c3cccc4c3sc3ccccc34)cccc12
> 2000 nM: HD-MY-Z | 697 | A498 | RPMI-8866 | MV4-11 | ES1 | JAR | QIMR-WIL
610 nM: SNU1
21.4 nM: NCI-H1770
1180 nM: HH
not listed: ML-2 | EOL1 | HC-1
> 2 µM: all other assays above

CCCS(=O)(=O)Nc1ccc(F)c(C(=O)c2c[nH]c3ncc(Cl)cc23)c1F [PLX-4720]
> 10000 nM: HD-MY-Z | SNU1 | A498 | HH | RPMI-8866 | MV4-11 | ES1 | JAR | NCI-H1770 | QIMR-WIL
4.16 µM: CP66-MEL
4.49 µM: NB13
142 nM: EOL1
8.42 µM: SW982
9.6 µM: RS4-11
3550 nM: 697
not listed: HC-1
> 10 µM: all other assays above

Reference: ChEMBL document CHEMBL1201861, “Genomics of Drug Sensitity in Cancer screening data, Wellcome Trust Sanger Institute”
